Key:
[1] = cited from earlier work
[2] = tested on: reduced glutathione (GSH) in the hepatic tissue; assay: Effect of 2-MTDC on reduced glutathione (GSH) in the hepatic tissue in mice; type: in vivo; conditions: mouse liver; for Glutathione (GSH), % of the reference value: reference 0.9% NaCl
animal tumor models = assay: Animal tumor models (skin papillomas, mammary adenocarcinomas, tracheal cancer, pulmonary adenocarcinomas, colon carcinomas, bladder cancer); type: in vivo; conditions: several animal tumor models in mouse, rat, hamster
Procedure: These studies were conducted in several animal tumor models. Test systems used were the mouse, the rat, and the hamster. The objects of study included skin papillomas, mammary adenocarcinomas, tracheal cancer, pulmonary adenocarcinomas as well as colon carcinomas and bladder cancer.

[3] = pulmonary cancer patients treated with epirubicin and simultaneously NAC; cited from earlier work
[4] = 2-MTDC 1.2 mmol/kg intraperitoneally, 8 hours after injection
[5] = 2-MTDC 2.4 mmol/kg intraperitoneally, 4 hours after injection

CC1NC(C(=O)O)CS1 (stereo not shown)
Stability under physiological conditions [1]: spontaneously decomposes into its components under physiological conditions

CC1(C(=O)O)NC(C(=O)O)CS1 (stereo not shown) [2-MTDC, 2-methyl-thiazolidine-2,4-dicarboxylic acid]
Glutathione (GSH), % of the reference value ([2]; 2-MTDC 1.2 mmol/kg intraperitoneally, 1 hour after injection): 117.5% | Glutathione (GSH), % of the reference value ([2]; 2-MTDC 1.2 mmol/kg intraperitoneally, 4 hours after injection): 87.2% | Glutathione (GSH), mean ± SD [2, 4]: 6.48 ± 0.67 μmol/g wet weight | Glutathione (GSH), % of the reference value [2, 4]: 108.5% | Glutathione (GSH), % of the reference value ([2]; 2-MTDC 1.2 mmol/kg intraperitoneally, 12 hours after injection): 112.0% | Glutathione (GSH), % of the reference value ([2]; 2-MTDC 2.4 mmol/kg intraperitoneally, 1 hour after injection): 127.6% | Glutathione (GSH), mean ± SD [2, 5]: 5.76 ± 0.42 μmol/g wet weight | Glutathione (GSH), % of the reference value [2, 5]: 90.3% | Glutathione (GSH), % of the reference value ([2]; 2-MTDC 2.4 mmol/kg intraperitoneally, 8 hours after injection): 112.0% | Glutathione (GSH), % of the reference value ([2]; 2-MTDC 2.4 mmol/kg intraperitoneally, 12 hours after injection): 154.5% | Effect on the advance of cancerous diseases (animal tumor models): can slow down or even stop the advance of cancerous diseases

CC(=O)N[C@@H](CS)C(=O)O [N-acetylcysteine]
Effect on undesirable cardiotoxic effects of epirubicin [3]: undesirable cardiotoxic effects of epirubicin could be prevented
